Test results published in publication PMC9501377, “New Diarylamine KV10.1 Inhibitors and Their Anticancer Potential” (Pharmaceutics, 2022).

What was measured:
[1] = system: tumour spheroids of Colo357 cells; set-up: method as in PMID 33808994; conditions: cited from earlier work
KV10.1 (Eag1) = target: T1, KV10.1 (Eag1) (Homo sapiens, UniProt O95259); assay: Whole-cell patch-clamp on stably transfected HEK-293 cells expressing KV10.1; assay type: cell-based; conditions: HEK293; 50 μM, HEK-293 cells, patch-clamp, mean ± SEM
T1 construct: expressed in transfected cells; host or cells: HEK-293 (stably transfected)
T1 sequence (O95259 1-962 isoform O95259-2): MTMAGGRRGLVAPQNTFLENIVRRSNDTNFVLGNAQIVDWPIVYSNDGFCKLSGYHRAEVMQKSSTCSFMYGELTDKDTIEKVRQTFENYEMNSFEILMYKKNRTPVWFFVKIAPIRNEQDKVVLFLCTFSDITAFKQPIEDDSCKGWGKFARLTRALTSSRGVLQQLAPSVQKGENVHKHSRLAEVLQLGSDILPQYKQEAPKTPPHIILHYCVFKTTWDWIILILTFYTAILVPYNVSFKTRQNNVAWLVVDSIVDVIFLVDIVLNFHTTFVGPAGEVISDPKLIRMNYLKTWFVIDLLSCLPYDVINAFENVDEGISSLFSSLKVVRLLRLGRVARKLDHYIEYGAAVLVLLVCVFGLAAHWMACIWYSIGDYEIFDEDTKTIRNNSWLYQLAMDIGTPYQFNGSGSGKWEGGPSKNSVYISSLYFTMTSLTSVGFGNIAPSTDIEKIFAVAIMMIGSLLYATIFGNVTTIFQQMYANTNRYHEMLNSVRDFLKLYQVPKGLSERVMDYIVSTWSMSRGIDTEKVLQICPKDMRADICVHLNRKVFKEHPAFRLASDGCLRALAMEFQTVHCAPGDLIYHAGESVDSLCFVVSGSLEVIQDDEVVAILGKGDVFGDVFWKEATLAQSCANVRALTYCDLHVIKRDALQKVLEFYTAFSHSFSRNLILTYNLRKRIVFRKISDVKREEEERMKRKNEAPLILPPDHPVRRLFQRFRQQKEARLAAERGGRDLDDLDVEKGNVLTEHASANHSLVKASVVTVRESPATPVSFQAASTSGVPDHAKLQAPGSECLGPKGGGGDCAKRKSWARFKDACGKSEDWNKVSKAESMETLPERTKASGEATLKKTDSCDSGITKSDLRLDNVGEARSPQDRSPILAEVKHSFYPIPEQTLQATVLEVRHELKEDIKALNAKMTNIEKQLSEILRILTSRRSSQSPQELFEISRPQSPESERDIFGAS
Procedure: For whole-cell patch-clamp measurements, stably transfected HEK-293 cells expressing KV10.1 [26, 27, 28] were grown in DMEM with 10% FCS and 300 µg/mL Zeocin on glass coverslips coated with fibronectin. All experiments were conducted at room temperature under perfusion by gravity with extracellular solution (160 mM NaCl, 2.5 mM KCl, 2 mM CaCl2, 1 mM MgCl2, 10 mM Hepes pH 7.4 with NaOH, 8 mM glucose). Pipettes were made from #1 glass capillaries (WPI) and had 1–3 MΩ resistance. The intracellular solution contained 100 mM KCl, 45 mM N-methyl-D-glucamine, 10 mM 1,2-bis(o-aminophenoxy)ethane-N,N,N′,N′-tetraacetic acid (BAPTA), 10 mM Hepes pH 7.35. Stimulation was applied and data were acquired with an EPC10 Plus amplifier (HEKA Elektronik) controlled with Patch Master software. Compounds were applied with an 8-channel fast solution exchanger (ALA). Compounds were prepared to a stock concentration of 10 mM in DMSO. The control solution contained 0.5% DMSO. Stimuli consisted of 500 ms depolarizations to +40 mV.
All electrophysiological data are presented as means ± SEM of n ≥ 3 independent experiments unless otherwise indicated. Oocyte data were analysed using pClamp Clampfit 10.4 (Molecular Devices, Downingtown, PA, USA) and OriginPro 9 (Originlab, Northampton, MA, USA) or GraphPad Prism 8 software (GraphPad Software, Inc., San Diego, CA, USA). Patch-clamp data analysis was performed using FitMaster (HEKA Electronics), IgorPro (Wavemetrics, Inc., Lake Oswego, OR, USA) and GraphPad Prism 9 (GraphPad Software, Inc., San Diego, CA, USA). The Dunnett test and one-way ANOVA were performed to calculate the significance of the induced inhibition compared to the control (p < 0.05).

inhibition at 50 µM (KV10.1 (Eag1))	Compound	apoptosis in tumour spheroids of Colo357 cells [1]
–	CN(C)CCCOc1ccc(Nc2ccc(C(F)(F)F)cc2[N+](=O)[O-])cc1 [Compound 2]	induced significant apoptosis
44.6 ± 8.6%	O=[N+]([O-])c1cc(C(F)(F)F)ccc1Nc1ccc(OCC(O)CN2CCC(O)(COc3ccc(Cl)c(Cl)c3)CC2)cc1 (stereo not shown) [Compound 16a, 4-((3,4-Dichlorophenoxy)methyl)-1-(2-hydroxy-3-(4-((2-nitro-4-(trifluoromethyl)phenyl)amino)phenoxy)propyl)piperidin-4-ol]	–
26.8 ± 10.1%	O=C(NC1CCN(CC(O)COc2ccc(Nc3ccc(C(F)(F)F)cc3[N+](=O)[O-])cc2)CC1)c1ccc(Cl)c(Cl)c1 (stereo not shown) [Compound 16c, 3,4-Dichloro-N-(1-(2-hydroxy-3-(4-((2-nitro-4-(trifluoromethyl)phenyl)amino)phenoxy)propyl)piperidin-4-yl)benzamide]	–
60.7 ± 9.6%	COc1ccc(OCC2(O)CCN(CC(O)COc3ccc(Nc4ccc(C(F)(F)F)cc4[N+](=O)[O-])cc3)CC2)cc1 (stereo not shown) [Compound 16b, 1-(2-Hydroxy-3-(4-((2-nitro-4-(trifluoromethyl)phenyl)amino)phenoxy)propyl)-4-((4-methoxyphenoxy)methyl)piperidin-4-ol]	–
